Laboratory results from patent US9115385B2, “Methods and compositions for topoisomerase I modulated tumor suppression” (RG BIOPHARMA, LLC, priority 2006, dated 2015).

Legend:
purified CK2 holoenzyme = target: T1, purified CK2 holoenzyme (Homo sapiens, UniProt P68400); test: in vitro kinase assay of purified CK2 holoenzyme; type: biochemical; conditions: 10 nM
T1 construct: purchased Promega, Madison, Wis
Source text: (§1) P=supercoiled plasmid only.

CK2α catalytic subunit = target: T2, CK2α catalytic subunit (Homo sapiens, UniProt P68400); test: in vitro kinase assay of purified CK2α catalytic subunit; type: biochemical; conditions: 10 nM
T2 construct: purchased Active Motif, Carlsbad, Calif
T2 sequence (P68400 whole entry): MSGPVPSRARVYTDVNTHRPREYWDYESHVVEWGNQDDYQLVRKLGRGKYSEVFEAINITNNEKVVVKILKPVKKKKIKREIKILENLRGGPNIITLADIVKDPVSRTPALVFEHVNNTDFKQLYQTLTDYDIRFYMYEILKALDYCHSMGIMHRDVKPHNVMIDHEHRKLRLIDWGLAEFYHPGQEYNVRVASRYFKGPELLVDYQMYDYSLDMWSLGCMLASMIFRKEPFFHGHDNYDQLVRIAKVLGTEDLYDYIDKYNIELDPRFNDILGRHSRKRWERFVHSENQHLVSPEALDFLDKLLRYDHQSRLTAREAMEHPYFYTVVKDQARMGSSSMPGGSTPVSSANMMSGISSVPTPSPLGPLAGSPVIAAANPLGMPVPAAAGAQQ
Source text: as §1

purified cdk1 = target: T3, purified cdk1 (Homo sapiens, UniProt P06493); test: in vitro kinase assay of purified cdk1; type: biochemical; conditions: 10 nM
T3 construct: purchased Enzo Life Sciences, Farmingdale, N.Y
T3 sequence (P06493 whole entry, species assumed): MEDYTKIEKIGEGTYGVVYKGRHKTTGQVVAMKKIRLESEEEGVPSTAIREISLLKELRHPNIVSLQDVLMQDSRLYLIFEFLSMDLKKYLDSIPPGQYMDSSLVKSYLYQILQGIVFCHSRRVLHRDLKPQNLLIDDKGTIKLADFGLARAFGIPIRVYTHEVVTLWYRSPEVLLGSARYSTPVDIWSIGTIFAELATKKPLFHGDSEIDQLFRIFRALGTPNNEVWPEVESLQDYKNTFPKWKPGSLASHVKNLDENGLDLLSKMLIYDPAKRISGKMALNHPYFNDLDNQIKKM
T3 sequence (P14635 whole entry partner, species assumed): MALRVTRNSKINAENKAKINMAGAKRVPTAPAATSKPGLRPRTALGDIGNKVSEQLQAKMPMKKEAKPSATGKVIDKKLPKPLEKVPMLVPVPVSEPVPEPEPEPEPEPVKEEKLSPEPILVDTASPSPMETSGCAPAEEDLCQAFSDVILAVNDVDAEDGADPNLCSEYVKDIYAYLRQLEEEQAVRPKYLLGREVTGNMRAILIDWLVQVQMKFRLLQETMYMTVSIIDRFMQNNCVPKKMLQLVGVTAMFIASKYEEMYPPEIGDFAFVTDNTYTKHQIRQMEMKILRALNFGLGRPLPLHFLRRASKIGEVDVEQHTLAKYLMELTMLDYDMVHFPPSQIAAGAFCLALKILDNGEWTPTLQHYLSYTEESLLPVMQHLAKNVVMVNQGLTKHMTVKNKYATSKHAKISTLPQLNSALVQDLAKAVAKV
Source text: as §1

CK2 = CK2 activity in nuclear extracts of treated H358 or H23 cells; type: cell-based, human
CK2 protein (α subunit) = target: T4, CK2 protein (α subunit) (Homo sapiens, UniProt P68400); test: Western analysis of CK2 protein in lysates of treated cells; type: cell-based; conditions: H23 cells, 72 hours
T4 construct: endogenous in cells; host or cells: H23 cells (lysates)
T4 sequence (P68400 whole entry): as the sequence (P68400 whole entry) above

[1] = tested on: ARF/topoisomerase I complex; test: topo I immunoprecipitation followed by ARF Western in treated cells; type: cell-based, human; conditions: H23 cells treated with CK2 activator
topoisomerase I = topoisomerase I plasmid relaxation assay with nuclear extracts of treated cells; type: cell-based, human; conditions: 72 hours after treatment
Procedure: Topoisomerase I Assays: Assays were carried out using the Topoisomerase I Assay Kit (Topogen, Florida), according to the instructions provided with the kit and using the high salt nuclear extracts prepared as described above. […] The reaction was stopped by adding stop loading dye supplied in the kit and electrophoresed on a 1% agarose/TAE (10 mM TRIS-acetate/1 mM EDTA) gel until the dye front had reached the bottom of the gel. The gel was then stained for 20 minutes in 0.5 μg/mL ethidium bromide, destained in deionized water for 30 minutes, and electrophoresed for an additional hour to enhance band visibility. The gel was photographed and band intensities were analyzed digitally using a Kodak digital camera and analysis software. Some assays were carried out with alkaline phosphatase-treated extracts, prepared as described below, or in the presence of ARF or ARF1β thioredoxin fusion proteins (3, 9, 27 ng), prepared as described above (see pull-down assays).

H23 cells = test: cell viability assay with camptothecin, H23; type: cell-based, human
Procedure: (§2) Control cells received no pretreatment. […] CK2 activator treatment was for the duration of the assay. Cell viability was scored 3 days post-start of camptothecin treatment.
(§3) Viability assays were performed 24 hours post-vector treatment by exposing cells for 24 hours to increasing doses of camptothecin (a topoisomerase I inhibitor) in triplicate in a 96-well viability assay, and assaying them for viability 5 days post-start of vector treatment (FIG. 5B). For each growth curve, cell viabilities were normalized to the viability of cells treated with vector only (no camptothecin), to enable a direct visualization of the sensitization effect.
Studies of a large panel of cell lines have shown that cell lines with overexpressed CK2 (FIGS. 11B1-B3 and 11C1-C3) display hyper serine phosphorylation of topo I (FIG. 11D) that correlates with sensitivity to camptothecin (FIG. 11A). […] Cells were plated at 2000 cells per well and allowed to attach. Triplicate wells were then treated with the indicated doses of camptothecin for 18 hours, and monitored for viability 3 days post-start of treatment. Viability is represented as a % of control, untreated, cell viability. Referring to FIGS. 11B1-B3, PKC (B1), cdk1 (B2), and CK2 (B3) levels in cancer cell lines: Cell lysates were prepared from the indicated cancer cell lines and assayed for enzymatic activities, or evaluated by Western analysis for total PKC, cdk1, or CK2 protein levels. Actin levels served as a control (same control for PKC, cdk1, and CK2). Referring to FIGS. 11C1-C3 PKC (C1), cdk1 (C2), and CK2 (C3) levels in normal cell lines, compared to H358 and H23: Cell lysates were prepared from the indicated cell lines and evaluated as before. Numbers below Western blots indicate digital reading of band intensities of PCK, cdk1, or CK2 Western blots, relative to H358. Referring to FIG. 11D, topo-I immunoprecipitation followed by topo-I Western (top row) or phosphoserine Western (bottom row). Numbers below Western blot are digital readings of ser-P band intensities relative to H358.

[2] = tested on: topo I phosphoserine 506 epitope; test: Western of phosphoserine 506 epitope of topo I in treated cells; type: cell-based, human
purified PKC = test: in vitro kinase assay of purified PKC; conditions: 10 nM
CK2α transcription = test: RT-PCR of CK2α mRNA in treated H23 cells; conditions: 10 nM, 3 days
cdk1 [3] = target: T5, cdk1 (Homo sapiens, UniProt P06493); test: endogenous cdk1 activity in lysates of treated H23 cells; type: cell-based; set-up: endogenous in cells; host or cells: H23 cells (lysates); conditions: H23 cells treated with 10 nM, three day assay
Source text: as §1
Target sequence in this assay (P06493 whole entry): as the sequence (P06493 whole entry, species assumed) above
Target sequence in this assay (P14635 whole entry partner): as the sequence (P14635 whole entry partner, species assumed) above

PKC [4] = test: endogenous PKC activity in lysates of treated H23 cells; conditions: H23 cells treated with 10 nM, three day assay
[5] = tested on: topo I serine phosphorylation; test: topo I immunoprecipitation followed by phosphoserine Western in treated cells; conditions: digital quantitation of band intensities
H358 cells = test: cell viability assay with camptothecin, H358; type: cell-based, human
Procedure: as §2, §3
(§4) Studies of a large panel of cell lines have shown that cell lines with overexpressed CK2 (FIGS. 11B1-B3 and 11C1-C3) display hyper serine phosphorylation of topo I (FIG. 11D) that correlates with sensitivity to camptothecin (FIG. 11A). […] Triplicate wells were then treated with the indicated doses of camptothecin for 18 hours, and monitored for viability 3 days post-start of treatment. […] Referring to FIGS. 11B1-B3, PKC (B1), cdk1 (B2), and CK2 (B3) levels in cancer cell lines: Cell lysates were prepared from the indicated cancer cell lines and assayed for enzymatic activities, or evaluated by Western analysis for total PKC, cdk1, or CK2 protein levels. […] Numbers below Western blot are digital readings of ser-P band intensities relative to H358.

PKC [6] = conditions: cited from earlier work
cdk1 [7] = target: T5, cdk1; conditions: cited from earlier work
Target sequence in this assay (P06493 whole entry, species assumed): as the sequence (P06493 whole entry, species assumed) above
Target sequence in this assay (P14635 whole entry partner, species assumed): as the sequence (P14635 whole entry partner, species assumed) above

HT29 cells = test: cell viability assay with camptothecin, HT29; type: cell-based, human; conditions: viability 3 days after treatment
Source text: FIG. 7 is a series of graphs showing the correlation of serine phosphorylation, ARF/topoisomerase I complex formation and camptothecin sensitivity. FIGS. 7A-C show the relative amounts of (A) serine phosphorylation of topoisomerase I, (B) total topoisomerase I, and (C) ARF-topoisomerase I complex following topoisomerase I immunoprecipitation in the indicated cell types. FIG. 7D is a graph showing the viability of the indicated cell types 3 days after treatment with camptothecin.
as §4, with “Referring” for “Numbers below Western blot are digital readings of ser-P band intensities relative”, “FIGS. 11C1-C3 PKC (C1), cdk1 (C2), and CK2 (C3) levels in normal cell lines, compared to H358 and H23: Cell lysates were prepared from the indicated cell lines and evaluated as before. […]” for “H358.”

Hela cells = test: cell viability assay with camptothecin, Hela; type: cell-based; conditions: compared with H23 and H358
Source text: FIG. 8A is a graph showing the viability of the indicated cell types 3 days after treatment with camptothecin. FIG. 8B is an electrophoretic gel of a topoisomerase I immunoprecipitation followed by an ARF and topoisomerase I Western analysis. FIG. 8C is an electrophoretic gel of a topoisomerase I immunoprecipitation and a phosphoserine Western analysis. FIG. 8D is an ARF Western analysis. […] The sensitivity of Hela cells to topoisomerase I inhibitors is also intermediate to that of […] and H23 cells.
The assay in FIG. 8A was carried out as in FIG. 7D. ARF/topoisomerase I complex formation was examined using the co-immunoprecipitation assay described for FIGS. 3A and 3C. A reduced but detectable level of ARF/topoisomerase I complex formation in Hela cells was observed, compared to H358 cells (FIG. 8B). ARF/topoisomerase I complex formation in H23 cells was undetectable (FIG. 8B), confirming previous experiments (FIG. 1C).

ARF = test: Western analysis of ARF protein levels in treated H358 cells; type: cell-based, human; conditions: 72 hours post-siRNA
Source text: FIG. 5B is a series of graphs showing H358 and PC-3 cell viabilities assayed 5 days post-vector treatment (adenoviral vector, moi 20 pfu/cell, or siRNA), and 4 days post treatment with increasing doses of camptothecin. Viability is expressed as a percent of no-camptothecin control for each vector or siRNA treatment. Results represent average of triplicate wells, with standard deviations indicated. Treatments: Adp14 (ARF full length ▪); Ad1β (ARF N-term ◯); siRNA control (▾); no vector (●); siRNA exon 2 (∇). […] Digital analyses of ARF levels are shown below ARF lanes. (lower panel) H358 cell viability assay following the indicated treatments. Viability was measured 3 days post-start of camptothecin treatment.
Adenoviral vectors were used to achieve ectopic overexpression of full-length ARF (Adp14) or ARF-N-terminal domain (Ad1β), and RNA interference to down-regulate endogenous expression of ARF. As shown by the Western analysis of H358 cells in FIG. 5A, ARF levels increased by some 3-fold, as determined by digital analysis of band intensities, by 48 hours post-treatment with Adp14 (moi, 20 pfu/cell, FIG. 5A, lane 1), relative to Ad1β-treated cells (FIG. 5A, lane 2) or untreated cells (FIG. 5A, lane 4). […]

T1 sequence (P68400 whole entry): as the sequence (P68400 whole entry) above
T1 sequence (P67870 whole entry partner): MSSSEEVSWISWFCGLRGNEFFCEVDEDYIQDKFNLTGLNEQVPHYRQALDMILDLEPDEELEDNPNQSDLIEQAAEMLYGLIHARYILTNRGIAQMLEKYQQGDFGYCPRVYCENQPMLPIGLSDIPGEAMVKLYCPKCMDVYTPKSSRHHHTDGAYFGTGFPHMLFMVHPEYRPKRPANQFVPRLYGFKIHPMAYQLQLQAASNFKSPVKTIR

## CCn1cnc(C(N)=O)c1C(N)=O [CK2 activator]
Purified CK2 holoenzyme
  stimulation of purified CK2 holoenzyme activity: ~6 fold
CK2α catalytic subunit
  stimulation of CK2α catalytic subunit activity: ~6 fold
Purified cdk1
  effect on purified cdk1 activity: no effect
CK2; H23 cells, 10 nM for duration of assay
  increase in CK2 activity relative to untreated cells: 4 fold
CK2; H358 cells, similar treatment (data not shown)
  increase in CK2 activity: 10%
CK2 protein (α subunit)
  CK2 protein accumulation: enhances the accumulation of CK2 protein
[1]
  p14ARF/topo I complex formation: complex formation occurs
Topoisomerase I; H23 cells, 0.75 μg lysates protein per reaction
  conversion of supercoiled plasmid to relaxed form by nuclear extract: converts virtually all of the supercoiled form to relaxed form
H23 cells; 10 nM
  effect on cell viability (activator alone): no effect on cell viability
H23 cells; 10 nM activator for duration of assay, camptothecin 18 hours, 3-day viability
  change of cellular response to camptothecin: more sensitive to camptothecin
H23 cells; range of 5-100 nM tested
  lowest dose that could activate CK2 while having no effect on cell viability: 10 nM
[2]; H23 cells treated as in FIG. 13B
  cellular levels of the phosphoserine 506 epitope: induces cellular levels of the phosphorylated epitope
Purified PKC
  effect on purified PKC activity: no effect
CK2α transcription
  CK2α transcription: not CK2α transcription
cdk1 [3]
  effect on endogenous cdk1 activity: no effect
PKC [4]
  effect on endogenous PKC activity: no effect
[5]; H23 cells
  increase in topo I phosphorylation relative to untreated H23 cells: ~4.7 fold

## Brc1c(Br)c(Br)c2[nH]nnc2c1Br [TBB, 4,5,6,7-tetrabromobenzotriazole]
Topoisomerase I; H358 cells, 0.75 μg lysate per reaction
  conversion of supercoiled plasmid to relaxed form by nuclear extract: essentially none is converted
H358 cells; pretreatment then camptothecin 18 hours, 3-day viability
  change of cellular response to camptothecin: more resistant to camptothecin
[2]; H358 cells treated as in FIG. 13A
  cellular levels of the phosphoserine 506 epitope: suppresses cellular levels of the phosphoserine epitope
PKC [6]
  effect on PKC: minimal effects
cdk1 [7]
  effect on cdk1: minimal effects
[5]; H358 cells
  topo I serine phosphorylation, % of untreated H358 cells: about 10%

## CC[C@@]1(O)C(=O)OCc2c1cc1n(c2=O)Cc2cc3ccccc3nc2-1 [camptothecin]
H23 cells
  response to camptothecin: greatly reduced response
H23 cells; viability 3 days after treatment
  sensitivity to camptothecin compared with H358 and PC-3: more resistant
HT29 cells
  sensitivity to camptothecin compared with H358 and PC-3: more resistant
Hela cells
  sensitivity to camptothecin: intermediate to that of H23 and H358

## siRNA to exon 1β: siRNA to the exon 1β region of ARF (SEQ ID NO: 4 and 5) (chain 1 GGGUUUUCGUGGUUCACAUTT; chain 2 AUGUGAACCACGAAAACCCTC; chemistry not given here)
H358 cells; viability 5 days post-start of vector treatment
  sensitivity to camptothecin after exon 1β siRNA with or without Adp14: decreased sensitivity to camptothecin
ARF
  ARF protein level relative to untreated cells: about 0.25
